Converted amounts (≈) assume the structure as drawn.
Assays:
[1] = system: methicillin-resistant Staphylococcus aureus (MRSA); assay: Bactericidal assay (MBC), subculture of dilutions on TSB agar; assay type: cell-based; details: challenge with 1×10^4 MRSA
Description: S. aureus maintained as a frozen culture with 10% (v/v) glycerol at −80° C. was thawed and then propagated on trypticase soy broth (TSB) or agar plates at room temperature (R.T.); determinations for Most Probable Number (MPN) in given samples were performed at 37° C., using standard assay techniques.
Tested sanitizers comprised commercially available gel products (i.e., “Brand A” and “Brand B”) from two manufacturers; these gels were comprised substantially of ethanol (60-70% w/w). […] Additional prototype liquid preparations (“Brand C1” and “Brand C2”) were substantially comprised of mixtures of alcohol (60-70% ethanol or isopropanol, w/w) combined with triclosan (approximately 0.04% w/w). Finally, triclosan was added to certain of the commercially available products (Brand B) to yield modified products containing triclosan at a level of approximately 0.04% w/w (“Brand B1”).
Killing of bacteria at each dilution (i.e., minimum bactericidal concentration, MBC) was determined by removing 5 μL aliquots and subculturing these on the surface of a TSB agar plate. Plates were incubated overnight at 37° C. and observed for growth. Studies were performed at 30 sec, at 5, 10, and 30 min, and at 1, 2, 4, and 8 hours after adding the challenge bacteria.

bacteria = details: MMWR/RR-16; cited from earlier work
[2] = system: bacterial counts on hands; details: Triclosan (0.1%), after a 1-minute hygienic handwash; cited from earlier work
S. aureus = details: against S. aureus; Johnson et al. 2002; cited from earlier work
E. coli = details: against E. coli; Johnson et al. 2002; cited from earlier work
[3] = cited from earlier work
[4] = topically-applied; cited from earlier work

Oc1cc(Cl)ccc1Oc1ccc(Cl)cc1Cl [Triclosan, 2,4,4′-trichloro-2′-hydroxy-diphenyl ether]
dilution at which preparation is still bactericidal [1]: ≤ 10 fold | minimum bactericidal concentrations (bacteria): 25 to 500 µg/mL | reduction of bacterial counts on hands [2]: 2.8 log10 | MBC (S. aureus): 7.5 µg/mL (≈ 25.9 µM) | MBC (E. coli): 1.3 µg/mL (≈ 4.49 µM) | solubility in water [3]: substantially insoluble in water | penetration into human skin [4]: minimal penetration into human skin

Reference: patent US20040214785A1, “Surface sanitizing compositions with improved antimicrobial performance” (priority 2003, published 2004)
